Measured values from patent publication US7049331B2, “1,2,4-thiadiazole derivatives as melanocortin receptor modulators” (Ortho-McNeil Pharmaceutical, Inc., priority 2001, dated 2006).

Assays:
[1] = biological target: T1, melanocortin MC-4 receptor (Homo sapiens, UniProt P32245); assay: Melanocortin MC-4 Receptor Binding Assay (SPA)
T1 construct: purchased Receptor Biology Inc
Outline: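 Membranes bound to WGA SPA beads were incubated 16 h at 25° C with 40 pM ¹²⁵I-NDP-MSH and test compound (1 mM stock in 30% DMSO-HEPES pH 7.4). Nonspecific binding set with 1 μM NDP-MSH or α-MSH; percent inhibition from bound cpm.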

[2] = biological target: MC5-R (Homo sapiens, UniProt P33032); assay: MC5-R binding
Chain of MC5-R (P33032 whole entry): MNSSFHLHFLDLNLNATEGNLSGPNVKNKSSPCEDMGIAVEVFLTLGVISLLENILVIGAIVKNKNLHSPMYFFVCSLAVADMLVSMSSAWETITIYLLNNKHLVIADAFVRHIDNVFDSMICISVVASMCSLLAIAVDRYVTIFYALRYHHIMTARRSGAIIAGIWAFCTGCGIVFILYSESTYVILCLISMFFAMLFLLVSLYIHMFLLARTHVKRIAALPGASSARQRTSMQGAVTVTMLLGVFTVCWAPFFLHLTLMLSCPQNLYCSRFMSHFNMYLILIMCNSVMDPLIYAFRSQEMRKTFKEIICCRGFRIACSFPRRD

[3] = system: human sebocytes; assay: Nile red evaluation of lipid accumulation in sebocytes; type: cell-based; settings: for inhibition at 0.4 µM: read-out: % Inh 0.4 μM (lipid accumulation, Nile red); for inhibition at 0.8 µM: read-out: % Inh 0.8 μM (lipid accumulation, Nile red)
Protocol: The cells were incubated at 37° C. for 24 hours prior to their use as a feeder layer for sebocytes. Human sebocytes were isolated from Dermatome shavings of postoperative pieces of human skin at 0.4-0.8 mm depths (this part of the skin was previously shown to be enriched in sebaceous glands). […] This medium was changed every 3 days (Phase III). Hormones, mixture of hormones i.e. bovine pituitary extract or compounds to be tested were added to the culture at the beginning of phase III. […] The evaluation of lipid accumulation completed using the Nile red method. This method relies on visualization of neutral lipids by Nile red and quantitation by reading of fluorescence at 535 nm excitation, 580 nm emission using a plate reader. The lipid synthesis was evaluated by radioactive labeling using ^14C acetate and quantified by Bio Rad Phosphoimager (Molecular Imager, FX) using 4.1 Software. […] Quantitation of accumulation/inhibition of neutral lipids in sebocytes was accomplished by Nile red binding assay. Briefly, following exposure of sebocytes to test compounds, the cells were allowed to interact with 1 μM Nile red in Hanks buffered saline solution containing DMSO and Pluronic F127. After 4 hours of incubation, washing and incubation overnight, the fluorescence was read at 535 excitation and 580 emission using a fluorescence plate reader. […] Following the procedure described above, select compounds of the present invention were tested for visual and Nile red evaluation of lipid accumulation, with results as listed in Table 9.

[4] = system: human sebocytes; assay: Visual observation of lipid granule formation in sebocytes; type: cell-based
Protocol: Semiconfluent cultures of 3T3 mouse fibroblasts (Swiss Albino mouse, ATCC CCL-92) were treated with mitomycin C (4 μg/ml) for 3 hours, trypsinized and seeded at a density of 2.5×10^5/9.5 cm^2 tissue culture plate in Dulbeccos Minimal Essential Medium (DMEM) containing 10% Colorado Calf Serum, PNC (100U/ml), STM (100 μg/ml), L glutamine (0.3 mg/ml), sodium pyruvate (1 mM) and nonessential amino acids (100 μM). The cells were incubated at 37° C. for 24 hours prior to their use as a feeder layer for sebocytes.
Human sebocytes were isolated from Dermatome shavings of postoperative pieces of human skin at 0.4–0.8 mm depths (this part of the skin was previously shown to be enriched in sebaceous glands). Shavings so obtained were treated with 1% Dispase in Iscoves medium containing 10% serum for 20 min at 37° C. The tissue was then placed in 0.3% trypsin/1% EDTA in Phosphate Buffered Saline (PBS) for 10 minutes at 37° C. Following this incubation the cells were gently scraped from the tissue in Growth medium (GM) containing DMEM/F12 media mixture (3:1), supplemented with 8% heat inactivated FBS, 2% heat inactivated human serum (HS), 1 mM sodium pyruvate, epidermal growth factor (10 ng/ml), insulin (10 μg/ml), hydrocortisone (0.4 μg/ml) and +/−cholera toxin (100 μg/ml), L-glutamine and antibiotics. Cells so obtained were filtered through nylon mesh ([…]), centrifuged at 750 RPM, re-suspended in GM and counted.
Resultant cells from the above isolation procedure were plated on the 3T3 feeder layers at 2×10^5/9.5 cm^2 in growth medium and maintained at 37° C. and 5% CO2 for 3 days (Phase I). Following the initial growth period they were transferred to a transition medium (TM) that consisted of DMEM/F12 media supplemented with 1 mM sodium pyruvate, insulin ([…]), transferrin ([…]) and selenium (5.5 μg/ml) (ITS), 2% heat inactivated FBS and 2% heat inactivated human serum as well as +/−cholera toxin (ch.t.) (100 μg/ml), L-glutamine and antibiotics (Phase II). Three days later the cells were changed to differentiation medium (DM), DMEM/F12 supplemented with ITS, 3,3′,5-triido-L-thyronine sodium (3 nM), 1%(v/v) trace element mix and the choice of differentiation agent i.e. bovine pituitary extract (10 μg/ml). This medium was changed every 3 days (Phase III).
Hormones, mixture of hormones i.e. bovine pituitary extract or compounds to be tested were added to the culture at the beginning of phase III. Two criteria were used to evaluate the effect of these materials on sebaceous cultures: 1) visual observations and 2) evaluation of sebaceous lipid accumulation and synthesis. The evaluation of lipid accumulation completed using the Nile red method. This method relies on visualization of neutral lipids by Nile red and quantitation by reading of fluorescence at 535 nm excitation, 580 nm emission using a plate reader. The lipid synthesis was evaluated by radioactive labeling using ^14C acetate and quantified by Bio Rad Phosphoimager (Molecular Imager, FX) using 4.1 Software.
Quantitation of accumulation/inhibition of neutral lipids in sebocytes was accomplished by Nile red binding assay. Briefly, following exposure of sebocytes to test compounds, the cells were allowed to interact with 1 μM Nile red in Hanks buffered saline solution containing DMSO and Pluronic F127. After 4 hours of incubation, washing and incubation overnight, the fluorescence was read at 535 excitation and 580 emission using a fluorescence plate reader.
Following the procedure described above, select compounds of the present invention were tested for visual and Nile red evaluation of lipid accumulation, with results as listed in Table 9.
Following the procedure described above, select compounds of the present invention were tested for their inhibitory effect on differentiation of human sebocytes. […]

T1 sequence (P32245 whole entry): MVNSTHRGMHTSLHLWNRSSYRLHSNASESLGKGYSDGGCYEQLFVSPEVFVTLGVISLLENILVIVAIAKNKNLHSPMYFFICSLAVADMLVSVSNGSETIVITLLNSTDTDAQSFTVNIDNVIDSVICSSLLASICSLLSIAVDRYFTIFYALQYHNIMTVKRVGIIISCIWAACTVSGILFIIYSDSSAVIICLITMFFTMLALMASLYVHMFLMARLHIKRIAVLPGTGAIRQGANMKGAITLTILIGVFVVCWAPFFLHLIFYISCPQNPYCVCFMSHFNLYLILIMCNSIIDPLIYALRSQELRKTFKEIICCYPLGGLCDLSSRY

SMILES | IC50 [1] | MC5-R IC50 [2] | inhibition at 0.4 µM [3] | inhibition at 0.8 µM [3] | Visual* 0.4 μM (inhibition of lipid granule formation) [4] | Visual* 0.8 μM (inhibition of lipid granule formation) [4] | IC50 [2] | lipid granules in sebocyte cultures (visual, stained cultures) ([4]; seven day treatment)
COc1ccccc1-[n+]1sc(Nc2ccc(C)cc2)nc1-c1ccccc1.[Br-] [Compound 31, 2-(2-methoxyphenyl)-3-phenyl-5-p-tolylamino-[1,2,4]thiadiazol-2-ium] | 22 nM | – | – | – | – | – | – | –
COc1ccc(N(C)c2nc(-c3ccccc3)[n+](-c3ccc(C)cc3)s2)cc1 [Compound 50] | 30000 nM | No binding | 0% | 0% | 0 | 0 | – | –
COc1ccccc1-c1nc(Nc2ccccc2)s[n+]1-c1ccccc1OC.[Br-] [Compound 74, 2-(2-methoxyphenyl)-3-(2-methoxyphenyl)-5-phenylamino-[1,2.4]thiadiazol-2-ium] | 194 nM | – | 72% | 100% | +++ (+++ = 75%) | ++++ (++++ = 100%) | 154 nM | complete disappearance of lipid granules
c1ccc(CNc2nc(-c3ccccc3)[n+](-c3ccccc3)s2)cc1 [Compound 84] | – | No binding | 0% | 0% | 0 | 0 | – | –
